The source of these data is patent US12582693B2, “Glutathione trisulfide (GSSSG) in neuroprotection” (The General Hospital Corporation, priority 2020, dated 2026).

Test [1] concerns mice subjected to SCI. Nature of the test: Murine model of spinal cord ischemia (SCI) with delayed paraplegia; motor function by Basso Mouse Scale and survival after preconditioning. The class given is in vivo. Particulars: preconditioning 200 mg/kg IP daily for 4 days in DMSO, vs DMSO alone. As to the method:
Briefly, under anesthesia and mechanical ventilation via endotracheal intubation, SCI was induced by placing the first clip on the aortic arch between the left common carotid artery and the left subclavian artery and the second clip on the origin of the left subclavian artery. The completeness of the occlusion was ascertained by an immediate and sustained loss of any detectable pulse pressure in the femoral artery pressure tracing. After 5 min of ischemia, the clips were removed, and the chest was closed in layers. At 10 minutes of reperfusion, the arterial catheter was removed, incisions were closed, and animals were allowed to recover from anesthesia. Temperature of erector spinae muscle was monitored and maintained at 37.5° C. during whole surgery until recovery from anesthesia. In sham-operated mice, whole surgical procedure was performed as described, but no clips were applied. Motor function was quantified serially at pre-SCI, 24, 48, and 72 h after spinal cord ischemia by the Basso Mouse Scale (BMS) (Basso et al., 2006; Kakinohana et al., 2011). The maximum deficit is indicated by a score of 0. Although BMS score<6 (0 to 5) indicates paraplegia, BMS score>6 (6 to 9) indicates ability to walk.
To examine preventive effects of GSSSG against neurofunctional deficit after SCI, mice were subjected to preconditioning with GSSSG treatment before induction of SCI. […]

Test [2] has as its system SH-SY5Y cells. The test is described as follows: MPP+-induced SH-SY5Y cell death, cell viability by crystal violet assay. Conditions: MPP+ 2 mM, DMEM/F12 (20% FBS), 37° C., 24 h. The class given is cell-based. As to the method:
The effects of GSSSG on 1-methyl-4-phenylpyridinium (MPP+)-induced neuronal (SH-SY5Y cell) death were evaluated. MPP+-poisoning is an in vitro model of Parkinson's disease.
SH-SY5Y cells were incubated with or without MPP+ (2 mM) in DMEM/F12 (20% FBS) with or without drugs at 37° C. for 24 h. Cell viability was measured using the crystal violet assay.

Take `N[C@@H](CCC(=O)N[C@@H](CSSSC[C@H](NC(=O)CC[C@H](N)C(=O)O)C(=O)NCC(=O)O)C(=O)NCC(=O)O)C(=O)O` [GSSSG, Glutathione trisulfide]: the “Motor function (Basso Mouse Scale, BMS) / paraplegia after SCI” value in test [1] (SCI 24 h after last administration, BMS up to 72 h) is “prevented motor functional deficit and paraplegia”. In test [1], the “Survival rate of mice after SCI” value is given as “did not change survival rate”. In test [2], the “Protection from MPP+-induced cell death (cell viability)” value is reported as “protective effect”.
Consider `[Na+].[Na+].[S-2]` [Na2S, reference compound], for which, in test [2], the “Protection from MPP+-induced cell death (cell viability)” value is “but not Na2S, protected”.
